Test results taken from EP4506341A1, “TISSUE REGENERATION APPROACHES” (ZeCardio Therapeutics SL, priority 2023, dated 2025).

Assays:
Tob1 KO H9C2 cells = test: MTT proliferation assay in Tob1 knockout H9C2 cells; format: cell-based; conditions: Rattus norvegicus; Tob1 depleted (KO) H9C2 cells; proliferation by MTT, 144 hours
Method: 100.000 H9C2 cells were plated in a 24 well plate day before transfection with lipofectamine CRISPRMAX™ (Thermofisher, CMAX00001), to obtain a 70% of confluence. The CRISPRMAX™ assay was performed following the manufacturer's instructions. Briefly Cas9 nuclease/gRNA RNP complexes were prepared by combining the following components , 3,85 µ! of 2 µM Alt-R S.p. Cas9 Nuclease v3 (1081059, IDT)1; 2,25 µ! of 2 µM sgRNAs (Tob1 sgRNA1: […] (SEQ ID NO: 3) and Tob1 sgRNA2: […] (SEQ ID NO: 4), negative control: GCACUACCAGAGCUAA (SEQ ID NO: 5), Synthego), 2,5 µ! Cas9 plus reagent in 16,65 µl Opti-MEM™(Gibco™; Life Technologies, Grand Island, NY, USA) in tube 1 and 1,5 µl lipofectamine CRISPRMAX™ in 25 µ! in Opti-MEM™ in tube 2. The Cas9/sgRNA ribonucleoprotein (RNP) complex was obtained by incubating the mix of tub1 and 2 for 10 minutes at room temperature. 50 µL of the RNP complex was added to cells in 450 µL of fresh high glucose DMEM (ATCC, 30-2002), supplemented with 10 % FBS and without antibiotics and cells were incubated with the RNP complex for 48 h at 37 °C.
(§1) 3-(4,5-dimethylthiazol-2-yl)-2,5-diphenyltetrazolium bromide, MTT (Sigma, M5655-500MG) assay was used as a surrogate to evaluate cell number and cell proliferation in H9C2 and MCF-7 cells. MTT is a colorimetric assay that measures cell metabolic activity in viable cells, resulting from the activity of mitochondrial dehydrogenases which cleave the tetrazolium ring of the yellow tetrazolium salt MTT, yielding formazan crystals. The protocol was designed to align Tob1 peak decrease in mRNA expression levels (48-96 hours post-transfection) with the period of exponential growth of the cells (24-72 hours post-replating).
MCF-7 cells and H9C2 cells were seeded at 100,000 cells/well in 24-well in DMEM + 10% FBS plates to reach 80-90% at time of transfection. MCF-7 and H9C2 cells were transfected 24 hours post-plating with Silencer® Select siRNAs to knock down Tob1. 48 hours post-transfection, cells were lifted and plated at 10000 (MCF-7) and 8000 cells/well (H9C2) in 96-well plates and grown for 144 hours. […] 24 hours later, absorbance was measured at 590 nm with the spectrophotometer FLUOstar Omega plate reader (BMG LabTech).
(§2) Both Tob1 expressing and Tob1 knockout H9C2 cells were seeded at 8000 cells/well in 96-well plates. 48 hours later, cells were treated with 1.28 nM; 6.4 nM; 32 nM, 160nM, 800 nM, 4 µM and 20 µM ZXR-807, ZXR-810; ZXR-081 and ZXR-090 and cell proliferation was measured 144 hours post-treatment using the MTT assay as described above.
Tob1 inhibitors selectivity was assessed by comparing dose-responses of ZXR-807, ZXR-810, ZXR-081 and ZXR-090 in H9C2 control cells and H9C2 Tob1 KO cells where Tob1 was depleted by CRISPR/Cas9 technology. […]

hiPSC cardiomyocytes [1] = test: Cell migration (wound healing) assay in hiPSC-CMs; format: cell-based, Human; conditions: 8 nM, 144 hours
Method: (§3) hiPSC-CMs cells were seeded at 25,000 cells per well in 96 wells plates. 168 hours after seeding, cells were scraped with a 200 µL tip and treated with 8, 40 and 200nM ZXR-807, ZXR-810, ZXR-081 and ZXR-090. Plates were imaged with an inverted microscope (Leica, DMI6000B) right after generating the wound (0 h) and 144 hours post-scraping.
All images were analyzed using the Fiji software (Schindelin et al., 2012) and the amount of cellular migration was determined by calculating the wound area at 0h and 28 hours or 144 hours and normalized to control vehicle-treated cells (0,3% DMSO).

Ki67 = test: Nuclear Ki67 immunostaining in hiPSC-CMs after migration assay; format: cell-based, Human; conditions: 8 nM, 144 hrs, hiPSC cardiomyocytes
Method: as §3
Following the migration assay, the medium was aspirated from the 96-well plates, and cells were washed twice with phosphate buffered saline solution (PBS) 1x (Fisher bioreagents, BP399-4). Cells were fixed with 4% paraformaldehyde (Sigma, 158127) for 10 minutes at room temperature and washed 3 times with PBS 1x. Cells were permeabilized with Triton™ X-100, 0.03% (Merck, T8787) and blocked with 0.5% Goat serum (ThermoFisher, 16210064) in PBS 1x, during 1 hour at room temperature. The primary antibodies Ki67 rabbit antibody 1/100 (Santacruz, sc-23900), and cardiac Troponin (cTnT mouse antibody 1/100 (ThermoFisher, MA5-12960) were diluted in the following buffer: Triton™ X-100 0.03% and 1% Bovine serum albumin (BSA) 10% (nzytech, MB04602) and PBS 1x. hiPSC-CMs were incubated with the primary antibodies overnight at 4°C, washed three times with PBS 1x and incubated with the secondary antibodies goat anti-mouse or anti -rabbit coupled to Alexa fluorescent dyes (company). DAPI 1/1000 (Merck, D9542-5MG) was incubated for 20 min at room temperature to visualize nuclei. Cells were washed out 3x with PBS and kept in PBS at 4°C.
Preparations were examined on a fluorescent inverted microscope Leica, DMI6000B using 20x dry objectives from Leica. Images were analyzed with the open source image processing package Fiji to quantify Nuclear Ki67 fluorescent intensity and cellular cardiac troponin T (cTnT) normalized to the number of nuclei in the field of view

H9C2 cells = test: MTT proliferation assay in Tob1 expressing (control) H9C2 cells; format: cell-based, rat; conditions: for H9C2 % Proliferation (normalized to control): 4 microMolar, MTT assay after 144 hours, increase above control values; for EC50 in H9C2 cells lower than EC50 in Tob1 KO H9C2 cells (selectivity for Tob1): H9C2 control vs Tob1 KO H9C2 cells, MTT; for EC50: Rattus norvegicus, H9C2 control cells, proliferation by MTT, 144 hours, 1,28 nM to 20 µM
Method: as §1
MCF-7 cells and H9C2 cells were seeded at 100,000 cells/well in 24-well in DMEM + 10% FBS plates to reach 80-90% at time of transfection. MCF-7 and H9C2 cells were transfected 24 hours post-plating with Silencer® Select siRNAs to knock down Tob1. 48 hours post-transfection, cells were lifted and plated at 10000 (MCF-7) and 8000 cells/well (H9C2) in 96-well plates and grown for 144 hours. At day 6 (144 hours), 0,5 mg/ml MTT was added and incubated for 3 hours, producing formazan crystals that were solubilized with SDS 20%+ HCl 0.02N. 24 hours later, absorbance was measured at 590 nm with the spectrophotometer FLUOstar Omega plate reader (BMG LabTech).
as §2
Once lead compounds were selected, their efficacy, potency and selectivity at promoting proliferative responses, were evaluated in vitro in rat cardiomyoblasts (H9C2 cells) using MTT assay. H9C2 cells were treated with vehicle 0,3% DMSO and increasing concentrations of Tob1 inhibitors: ZXR-807, ZXR-810, ZXR-081 and ZXR-090, (1,28 nM to 20 µM), followed by the assessment of proliferation, using the MTT assay, after cells were left to grow for 144 hours (6 Days).

Cdk1 = test: Real time PCR of proliferation marker gene Cdk1 in H9C2 cells; format: cell-based, rat; conditions: 100 nM in H9C2 cells; for Cdk1 mRNA expression increase: normalized to vehicle-treated cells
Method: (§4) In order to evaluate 1) efficiency of Tob1 knockdown in MCF-7 and H9C2 cells and 2) expression levels of proliferation markers (Pcna, Cdk1 and Ccnb1) in H9C2 cells treated with the compounds of the invention, H9C2 cells were harvested by trypsinization and centrifuged at 300 x g for 5 min. Total mRNA was isolated using the Maxwell 16 LEV simplyRNA Cells Kit or Tissue Kit (Promega, Madison, WI) following the manufacturer's instructions. Nanodrop ND-1000 Spectrophotometer (Thermo Fisher Scientific, Waltham, MA) was used to quantity the amount of RNA extracted. cDNA synthesis was performed from 300 ng of total RNA with the SuperScript IV First-Strand Synthesis System (Thermo Fisher Scientific, Waltham, MA).
(§5) Real-time PCR was conducted using LightCycler 480 SYBR Green I Master on a LightCycler 480 thermal cycler (Roche, Basel, Switzerland). The expression levels of the indicated genes were calculated by the conventional 2^-DDCt method, with normalization to housekeeping gene glyceraldehyde-3-phosphate dehydrogenase (GAPDH).

Ccnb1 = test: Real time PCR of proliferation marker gene Ccnb1 in H9C2 cells; format: cell-based, rat; conditions: 100 nM in H9C2 cells
Method: as §4, §5

hiPSC cardiomyocytes [2] = test: CellTiter-Glo proliferation assay in hiPSC-CMs; format: cell-based, Human; conditions: 8nM
Method: Human Induced pluripotent stem-cell derived (iPS-CMs) cardiomyocytes (iCell® Cardiomyocytes, Cat. No. 11713) were purchased from FUJIFILM Cellular Dynamics. hiPSC Cardiomyocytes were seeded into 96 well plates coated with 0,1% gelatin (STEMCELL tech, 07903) with iCell Cardiomyocytes plating medium (Fujifilm, M1001). After 48 hours, the medium was changed to iCell Cardiomyocytes maintenance medium (Fujifilm, M1003) and cells were cultured for 2 weeks with media replacement every 48-72 hours. Cells were maintained in a humidified incubator (Thermo Scientific,HERACELL 150i) in a 95% air 5% CO2 environment at 37 °C
CellTitler-Glo® (Promega, G7570) was used to measure the activity of the compounds of the invention in triggering proliferation in hiPSC-CMs. The CellTiter-Glo® Luminescent Cell Viability Assay, similar to the MTT assay but with higher sensitivity, determines the number of metabolically active and viable cells, and is based on the quantification of ATP levels in the cells.
hiPSC-CMs were seeded at 7000 cells/well in 96-well plates and treated with the compounds of the invention at 8; 40 and 200nM in a 0.3% DMSO containing iCell Cardiomyocyte medium and a control treatment or vehicle with 0.3% DMSO in iCell cardiomyocyte medium. hiPSC-CMs proliferation was measured after 144h (6 days) , and 336 (14 days) of treatment. At each time point, 100 µL of CellTiter Glo (ratio 1:1 CellTiter Glo: cell culture medium ) was added to each well containing 100 µL iCell Cardiomyocyte medium, following the manufacturer's instructions. Luminescence was read in Varioskan (Thermo Fisher Scientific), 30 minutes after adding the reagent.

Row | Compound | EC50 (Tob1 KO H9C2 cells) | cell migration of hiPSC-CMs (in words) (hiPSC cardiomyocytes [1]) | nuclear Ki67 expression away from the scratch (Ki67) | H9C2 % Proliferation (normalized to control) (H9C2 cells) | EC50 in H9C2 cells lower than EC50 in Tob1 KO H9C2 cells (selectivity for Tob1) (H9C2 cells) | EC50 (H9C2 cells) | transcriptional activation of Cdk1 (in words) (Cdk1) | Ccnb1 expression (in words) (Ccnb1) | increase of proliferation rate of hiPSC cardiomyocytes (hiPSC cardiomyocytes [2]; 144 hours (6 days)) | increase of proliferation rate of hiPSC cardiomyocytes (hiPSC cardiomyocytes [2]; 336 hours (14 days)) | Cdk1 mRNA expression increase (Cdk1) | nuclear Ki67 signal intensity close to the scratch (Ki67) | time course of effect on proliferation increase (in words) (hiPSC cardiomyocytes [2]; peaking at 144 hours and disappearing by 336 hours)
1 | CC(C)N(C)C(=O)[C@@H]1C[C@H](N)C[C@H]1c1ccc(Cl)cc1 (relative stereo) [ZXR-810, rel(1R,2R,4R)-4-amino-2-(4-chlorophenyl)-N-isopropyl-N-methyl-cyclopentanecarboxamide] | 62.8 nM | activate cell migration | increased | 26.5% | 200-300 | 0.62 nM | promote the transcriptional activation | more moderately increased | 20-28% | 40% |  |  | 
2 | CC(=O)N[C@H]1C[C@@H](C(=O)N2CCOCC2)[C@H](c2ccc(Cl)cc2)C1 (relative stereo) [ZXR-090, rel-N-[(1R,3R,4R)-3-(4-chlorophenyl)-4-(morpholine-4-carbonyl)cyclopentyl]acetamide] | 62.8 nM | activate cell migration |  | 26,6% | 200-300 | 0.128 nM |  | more moderately increased |  |  | about 3 fold |  | 
3 | Cl.N[C@H]1C[C@@H](C(=O)N2CCOCC2)[C@H](c2ccc(Cl)cc2)C1 (relative stereo) [ZXR-081, rel-[(1R,2R,4R)-4-amino-2-(4-chlorophenyl)cyclopentyl]-morpholino-methanone hydrochloride] | 177 nM | activate cell migration | increased | 36,6% | < 60,000 |  |  |  | 20-28% |  | about 3 fold | significantly increased | transitory effect
4 | N[C@H]1C[C@@H](C(=O)N2CCSCC2)[C@H](c2ccc(Cl)cc2)C1 (relative stereo) [ZXR-807, rel-[(1R,2R,4R)-4-amino-2-(4-chlorophenyl)cyclopentyl]-thiomorpholino-methanone] | 82.8 nM | activate cell migration | increased | 27,4% | < 60,000 |  | promote the transcriptional activation | more moderately increased | 20-28% | 40% |  |  | 
